The assay deals with Culex pipiens and Aedes Egypti late 3rd instar larvae. Nature of the assay: Mosquito larvae mortality in cups of tap water. The class given is in vivo. Conditions: 20 larvae in 150 mL tap water. Here is the method: A series of control experiments are conducted to study the effect of aqueous hydrogen peroxide and saponin extract on mosquito larvae, individually, and in combination. In a series of 30 experiments, 20 Culex pipiens and Aedes Egypti in the late 3rd instar larvae are placed in a cup containing 150 mL of tap water. In separate experiments, the larvae are exposed to varying concentrations of hydrogen peroxide saponin extract. The mortality is recorded over a 5-day period.

For the compound `OO` [hydrogen peroxide], the “concentration needed to achieve 50% larvae mortality in 24 hrs” value is on record as > 100 ppm.

For the origin of these results see US20060121126A1, “Environmentally friendly pesticide and method of use” (priority 2004, published 2006).
